Measurements: publication PMC7747014 (Journal of medicinal chemistry, 2015)
Entries after “also recorded” stand apart in the source; their conditions may differ. Where two headings read alike, the source gives them in different places.

Assays:
[1] = system: melanoma UACC-62; details: read-out: cytotoxicity (GI50 in μM) melanoma UACC-62; cited from earlier work
[2] = system: breast MCF7; details: read-out: cytotoxicity (GI50 in μM) breast MCF7; cited from earlier work
[3] = system: lung HOP-62; details: read-out: cytotoxicity (GI50 in μM) lung HOP-62; cited from earlier work
[4] = target: T1, drug−Top1−DNA cleavage complexes (Homo sapiens, UniProt P11387); assay: Kinetics of reversal assay of Top1-mediated DNA cleavage complexes; type: biochemical; details: for reversal of ternary cleavage complexes: common cleavage sites 70, 92, 97 and 119, forward reaction terminated with 0.35 M NaCl
T1 sequence (P11387 1-765): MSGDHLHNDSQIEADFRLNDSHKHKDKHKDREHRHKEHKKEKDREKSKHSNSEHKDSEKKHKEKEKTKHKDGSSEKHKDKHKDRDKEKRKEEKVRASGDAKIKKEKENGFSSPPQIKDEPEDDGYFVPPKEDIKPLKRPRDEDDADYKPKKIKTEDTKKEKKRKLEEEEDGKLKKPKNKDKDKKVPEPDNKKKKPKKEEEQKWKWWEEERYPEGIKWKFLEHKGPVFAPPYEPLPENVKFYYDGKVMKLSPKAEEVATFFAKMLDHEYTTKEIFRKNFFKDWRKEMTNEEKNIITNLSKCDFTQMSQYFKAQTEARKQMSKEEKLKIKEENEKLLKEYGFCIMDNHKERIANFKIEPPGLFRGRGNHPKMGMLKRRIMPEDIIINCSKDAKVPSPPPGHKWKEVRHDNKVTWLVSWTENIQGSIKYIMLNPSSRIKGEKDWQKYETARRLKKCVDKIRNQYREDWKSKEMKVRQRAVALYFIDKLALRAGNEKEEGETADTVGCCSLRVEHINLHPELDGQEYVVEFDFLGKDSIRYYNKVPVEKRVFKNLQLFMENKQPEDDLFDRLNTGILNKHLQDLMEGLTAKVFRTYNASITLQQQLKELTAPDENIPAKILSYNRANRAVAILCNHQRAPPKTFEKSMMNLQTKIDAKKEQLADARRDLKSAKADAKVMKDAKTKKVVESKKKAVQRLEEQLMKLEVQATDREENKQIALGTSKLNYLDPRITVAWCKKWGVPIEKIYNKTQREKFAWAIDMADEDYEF

[5] = target: T2, Human recombinant Top1 (Homo sapiens, UniProt P11387); details: graded relative to 1 μM camptothecin; cited from earlier work
T2 sequence (P11387 1-765): T1 sequence (P11387 1-765)

[6] = system: CNS SF-539; details: read-out: cytotoxicity (GI50 in μM) CNS SF-539; cited from earlier work
[7] = system: prostate DU-145; details: read-out: cytotoxicity (GI50 in μM) prostate DU-145; cited from earlier work
[8] = target: T2, Human recombinant Top1; assay: Top1-mediated DNA cleavage assay; type: biochemical; details: for trapping of Top1 cleavage complexes at low concentration: 5 nM, dose-dependent gel (Figure 8)
[9] = system: renal SN12C; details: read-out: cytotoxicity (GI50 in μM) renal SN12C; cited from earlier work
[10] = system: 60 common human cancer cell lines (NCI-60); details: read-out: MGM; average GI50 across 60 cell lines; cited from earlier work
[11] = system: colon HCT-116; details: read-out: cytotoxicity (GI50 in μM) colon HCT-116; cited from earlier work
[12] = target: T3, recombinant TDP1 (Homo sapiens, UniProt Q9NUW8); details: read-out: TDP1 inhibition; semiquantitative IC50 scale; cited from earlier work
T3 sequence (Q9NUW8 whole entry): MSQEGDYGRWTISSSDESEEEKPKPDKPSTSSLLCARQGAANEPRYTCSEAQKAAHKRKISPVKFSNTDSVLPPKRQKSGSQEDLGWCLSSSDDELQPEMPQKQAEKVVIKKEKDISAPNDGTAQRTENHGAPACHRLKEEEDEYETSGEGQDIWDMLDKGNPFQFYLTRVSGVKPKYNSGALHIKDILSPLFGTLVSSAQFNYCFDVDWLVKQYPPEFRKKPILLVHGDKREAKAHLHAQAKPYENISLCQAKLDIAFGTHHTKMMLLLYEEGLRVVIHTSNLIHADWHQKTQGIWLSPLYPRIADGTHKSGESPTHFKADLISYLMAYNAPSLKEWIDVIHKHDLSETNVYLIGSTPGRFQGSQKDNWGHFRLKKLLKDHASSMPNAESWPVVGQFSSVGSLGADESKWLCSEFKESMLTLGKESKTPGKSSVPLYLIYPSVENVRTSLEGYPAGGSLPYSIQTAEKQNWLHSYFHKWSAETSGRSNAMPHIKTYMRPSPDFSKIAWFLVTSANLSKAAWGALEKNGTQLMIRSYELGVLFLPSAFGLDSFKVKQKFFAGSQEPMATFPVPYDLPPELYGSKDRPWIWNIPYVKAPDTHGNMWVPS

[13] = system: ovarian OVACAR-3; details: read-out: cytotoxicity (GI50 in μM) ovarian OVACAR-3; cited from earlier work
[14] = target: T3, recombinant TDP1; assay: Gel-based assay measuring the inhibition of recombinant TDP1; type: biochemical; details: read-out: TDP1 inhibition; semiquantitative IC50 scale

IC50 [14] [nM]	Top1 cleavage ([8]; graded relative to 1 μM camptothecin)	Compound	GI50 [1] [µM]	GI50 [2] [µM]	GI50 [3] [µM]	reversal of ternary cleavage complexes [4]	Top1 cleavage [5]	GI50 [6] [µM]	GI50 [7] [µM]	trapping of Top1 cleavage complexes at low concentration [8]	GI50 [9] [µM]	GI50 [10] [nM]	GI50 [11] [µM]	IC50 [12] [nM]	GI50 [13] [µM]	DNA alkylation / irreversible ternary cleavage complex ([4]; from decrease of cleavage bands over time)
–	–	CC[C@@]1(O)C(=O)OCc2c1cc1n(c2=O)Cc2cc3ccccc3nc2-1 [Compound 1, camptothecin]	< 0.01	< 0.01	< 0.01	reversed much faster	++++	< 0.01	< 0.01	lesser activity at that concentration	–	–	–	–	–	–
–	–	COc1cc2c(cc1O)-c1c(c3cc(OC)c(OC)cc3c(=O)n1CCCN1CCOCC1)C2=O [Compound 8]	0.07	0.03	0.18	–	–	0.28	0.2	–	0.19	3100 ± 300	2.3	37000 to 111000	8.3	–
37000 to 111000	+++++	O=C1c2cc(O)ccc2-c2c1c1ccc([N+](=O)[O-])cc1c(=O)n2CCCBr [Compound 68, 6-(3-Bromopropyl)-9-hydroxy-3-nitro-5H-indeno[1,2-c]-isoquinoline-5,11(6H)-dione]	–	–	–	quite persistent but did reverse over time; also recorded: reversed slower than that of camptothecin	–	–	–	trapped Top1 cleavage complexes at a concentration as low as 5 nM	–	–	–	–	–	did not alkylate or form an irreversible ternary cleavage complex; also recorded: no evidence of DNA alkylation
